Each block holds one molecule with its values, some of them ahead of it.
How the values were obtained:
SNRNP40 = test: decryptM, acetylation of SNRNP40 in HeLa cells; assay type: cell-based, human; settings: read-out: EC50 of SNRNP40 acetylation site
HeLa cells [1] = test: decryptM phosphoproteome profiling in HeLa cells; assay type: cell-based, human
CBP and p300 = test: decryptM; assay type: cell-based, human; settings: read-out: EC50 of inhibition of (auto-)acetylation sites on CBP and p300; HeLa
HeLa cells [2] = test: decryptM protein acetylation profiling in HeLa cells; assay type: cell-based, human
SU-DHL-4 cells [3] = test: FACS analysis of cytotoxicity; assay type: cell-based, human; settings: SU-DHL-4, FACS
cortactin (CTTN) = test: decryptM, acetylation of HDAC6 substrate cortactin in HeLa cells; assay type: cell-based, human; settings: within the tested dose range
ATR = ATR (Homo sapiens, UniProt Q13535); test: Kinobeads assay, ATR; assay type: binding
Sequence of ATR (Q13535 whole entry): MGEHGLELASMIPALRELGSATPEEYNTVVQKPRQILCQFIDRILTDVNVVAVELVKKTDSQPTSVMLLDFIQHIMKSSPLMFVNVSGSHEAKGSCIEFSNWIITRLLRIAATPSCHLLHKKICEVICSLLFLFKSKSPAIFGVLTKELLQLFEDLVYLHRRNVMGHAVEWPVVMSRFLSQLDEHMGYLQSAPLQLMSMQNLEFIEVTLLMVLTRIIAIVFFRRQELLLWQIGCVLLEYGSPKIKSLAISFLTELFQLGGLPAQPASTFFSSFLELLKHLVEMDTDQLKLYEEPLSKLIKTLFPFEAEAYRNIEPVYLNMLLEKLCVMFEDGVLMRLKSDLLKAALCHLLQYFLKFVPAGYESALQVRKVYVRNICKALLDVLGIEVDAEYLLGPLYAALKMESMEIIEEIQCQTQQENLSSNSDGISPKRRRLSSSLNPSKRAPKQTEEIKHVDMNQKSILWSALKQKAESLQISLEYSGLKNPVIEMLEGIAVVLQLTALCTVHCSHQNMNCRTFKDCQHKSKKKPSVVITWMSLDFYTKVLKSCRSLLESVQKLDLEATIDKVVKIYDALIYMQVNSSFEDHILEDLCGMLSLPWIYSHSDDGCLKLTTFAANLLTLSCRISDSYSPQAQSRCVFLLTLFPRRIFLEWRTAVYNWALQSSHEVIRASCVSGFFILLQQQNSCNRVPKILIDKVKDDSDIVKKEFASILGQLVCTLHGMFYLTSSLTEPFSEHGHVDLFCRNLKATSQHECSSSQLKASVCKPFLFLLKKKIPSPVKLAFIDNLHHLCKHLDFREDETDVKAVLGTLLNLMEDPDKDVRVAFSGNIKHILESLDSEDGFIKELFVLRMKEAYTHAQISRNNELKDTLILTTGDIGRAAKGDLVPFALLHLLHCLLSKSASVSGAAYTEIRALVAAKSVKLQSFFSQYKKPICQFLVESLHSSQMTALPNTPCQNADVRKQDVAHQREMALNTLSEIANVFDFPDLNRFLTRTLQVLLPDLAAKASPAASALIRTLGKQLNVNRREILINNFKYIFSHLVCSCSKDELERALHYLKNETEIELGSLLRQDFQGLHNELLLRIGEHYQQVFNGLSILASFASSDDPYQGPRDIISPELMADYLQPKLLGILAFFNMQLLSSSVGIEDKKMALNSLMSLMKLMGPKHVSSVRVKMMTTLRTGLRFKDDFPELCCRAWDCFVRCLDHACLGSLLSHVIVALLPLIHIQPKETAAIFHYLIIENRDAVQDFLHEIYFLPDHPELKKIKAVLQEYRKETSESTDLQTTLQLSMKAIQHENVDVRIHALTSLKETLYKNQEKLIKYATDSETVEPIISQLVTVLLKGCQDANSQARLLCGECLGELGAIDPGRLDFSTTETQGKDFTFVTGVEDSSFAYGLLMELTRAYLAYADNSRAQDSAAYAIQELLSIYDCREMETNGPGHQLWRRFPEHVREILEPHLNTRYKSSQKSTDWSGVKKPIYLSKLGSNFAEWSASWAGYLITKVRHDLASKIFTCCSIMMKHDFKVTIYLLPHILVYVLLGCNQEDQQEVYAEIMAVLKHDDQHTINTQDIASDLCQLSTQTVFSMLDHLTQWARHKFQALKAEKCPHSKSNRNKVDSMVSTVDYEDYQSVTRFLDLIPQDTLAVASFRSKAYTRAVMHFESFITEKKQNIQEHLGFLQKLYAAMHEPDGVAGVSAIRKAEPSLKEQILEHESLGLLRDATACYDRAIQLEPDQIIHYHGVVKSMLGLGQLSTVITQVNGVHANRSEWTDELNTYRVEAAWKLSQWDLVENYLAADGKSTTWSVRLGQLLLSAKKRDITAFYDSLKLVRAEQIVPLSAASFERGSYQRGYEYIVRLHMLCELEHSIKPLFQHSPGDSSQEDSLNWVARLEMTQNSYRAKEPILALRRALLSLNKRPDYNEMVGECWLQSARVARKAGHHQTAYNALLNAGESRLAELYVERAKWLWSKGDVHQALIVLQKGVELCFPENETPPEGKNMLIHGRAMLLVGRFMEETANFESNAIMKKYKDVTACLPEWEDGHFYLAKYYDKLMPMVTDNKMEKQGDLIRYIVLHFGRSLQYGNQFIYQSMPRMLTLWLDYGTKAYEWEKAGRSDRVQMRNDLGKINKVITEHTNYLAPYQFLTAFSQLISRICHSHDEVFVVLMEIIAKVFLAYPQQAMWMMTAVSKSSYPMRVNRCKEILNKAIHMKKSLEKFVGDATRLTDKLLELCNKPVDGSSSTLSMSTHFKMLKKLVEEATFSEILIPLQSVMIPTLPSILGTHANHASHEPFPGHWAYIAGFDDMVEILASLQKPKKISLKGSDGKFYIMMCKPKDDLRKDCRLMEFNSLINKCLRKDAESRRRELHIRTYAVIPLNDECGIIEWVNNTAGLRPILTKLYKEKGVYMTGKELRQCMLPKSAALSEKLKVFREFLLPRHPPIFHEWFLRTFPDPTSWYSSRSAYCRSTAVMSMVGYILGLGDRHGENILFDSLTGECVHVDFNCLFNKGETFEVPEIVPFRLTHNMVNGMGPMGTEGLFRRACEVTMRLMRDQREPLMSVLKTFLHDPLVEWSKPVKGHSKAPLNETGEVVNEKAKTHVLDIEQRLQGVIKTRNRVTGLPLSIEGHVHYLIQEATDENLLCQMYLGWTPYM

MDA-MB-175 = test: growth reduction, MDA-MB-175; assay type: cell-based; settings: Homo sapiens, read-out: reduced growth
SK-BR-3 cells = test: decryptM phosphoproteome profiling in SK-BR-3 cells; assay type: cell-based, human
AKT1S1 = test: decryptM, pT246 on AKT1S1 in SK-BR-3 cells; assay type: cell-based; settings: Homo sapiens, SK-BR-3, read-out: potency of inhibition of pT246 on AKT1S1
MDA-MB-175 cells = test: decryptM phosphoproteome profiling in MDA-MB-175 cells; assay type: cell-based, human
BT-474 = test: growth reduction, BT-474; assay type: cell-based; settings: Homo sapiens, BT-474, read-out: reduced growth
BT-474 cells = test: decryptM phosphoproteome profiling in BT-474 cells; assay type: cell-based, human
SHC1 = test: decryptM, pY427 on SHC1 in SK-BR-3 cells; assay type: cell-based; settings: Homo sapiens, SK-BR-3, read-out: potency of inhibition of pY427 on SHC1
SK-BR-3 = test: growth reduction, SK-BR-3; assay type: cell-based; settings: Homo sapiens, SK-BR-3, read-out: reduced growth
A549 lung cancer cells = test: decryptM phosphoproteome profiling in A549 cells; assay type: cell-based, human
[4] = tested on: KYSE-520 esophageal squamous cell carcinoma cell line; test: decryptM phosphoproteome profiling in KYSE-520 cells; assay type: cell-based, human; settings: KYSE-520, 30 min
[5] = tested on: K562 chronic myelogenous leukemia cells; test: decryptM phosphoproteome profiling in K562 cells; assay type: cell-based, human; settings: for number of regulated phosphopeptides: K562, 30 min drug treatment
SU-DHL-4 cells [6] = assay type: cell-based, human; settings: SU-DHL-4, live cell imaging
MKI67 = test: decryptM, phosphorylation of MKI67 in SU-DHL-4; assay type: cell-based, human
RFTN1 = test: decryptM, RFTN1 phosphorylation at S467 in SU-DHL-4; assay type: cell-based, human
ARH-77 cells = test: two-dimensional decryptM phosphoproteome analysis in ARH-77; assay type: cell-based, human; settings: dose-response at eight time points between 0 min and 24 h
SYK = test: decryptM, phosphorylation of SYK in SU-DHL-4; assay type: cell-based, human
[7] = tested on: ARH-77 plasma leukemia line; test: viability assay, ARH-77; assay type: cell-based, human
[8] = tested on: Ramos (Burkitt's Lymphoma); test: viability assay, Ramos; assay type: cell-based, human
Ramos cells = test: two-dimensional decryptM phosphoproteome analysis in Ramos; assay type: cell-based, human; settings: dose-response at eight time points between 0 min and 24 h
[9] = tested on: SU-DHL-4 (B-cell lymphoma); test: viability assay, SU-DHL-4; assay type: cell-based, human
SU-DHL-4 cells [10] = test: two-dimensional decryptM phosphoproteome analysis in SU-DHL-4; assay type: cell-based, human; settings: dose-response at eight time points between 0 min and 24 h

- EC50 (SNRNP40): 50 nM
- EC50 (CBP and p300): 50 to 200 nM
Molecule: CNC(=O)Nc1ccc2c(c1)CC[C@@]21OC(=O)N(CC(=O)N(Cc2ccc(F)cc2)[C@@H](C)C(F)(F)F)C1=O [A485]
- impact on the phosphoproteome (HeLa cells [1]): did not have much impact
- number of downregulated acetylated peptides (HeLa cells [2]): 59

Molecule: O=C1/C(=C/c2ccccc2)C(NC2CCCCC2)c2ccccc21 (stereo not shown) [BCI]
- cell killing by the drug alone (SU-DHL-4 cells [3]): effective in killing cells

Molecule: C#Cc1cccc(Nc2ncnc3cc(OC)c(OCCCCCCC(=O)NO)cc23)c1 [CUDC-101]
- effect on CTTN acetylation (cortactin (CTTN)): only at substantially higher concentrations
- higher affinity for HDAC targets than for kinase targets in cells (HeLa cells [2]; acetylated vs phosphorylated peptides): 100 fold
- number of upregulated acetylated peptides (HeLa cells [2]; of the 1,133 measured acetylated peptides): 139

- Kd (ATR): 91 nM
Molecule: Cn1c(=O)n(-c2ccc(C(C)(C)C#N)cc2)c2c3cc(-c4cnc5ccccc5c4)ccc3ncc21 [Dactolisib]

- EC50 (MDA-MB-175): 695 nM
- EC50 (AKT1S1): 11 nM
- EC50 (BT-474): 158 nM
- EC50 (SHC1): 18 nM
- EC50 (SK-BR-3): 234 nM
Molecule: CS(=O)(=O)CCNCc1ccc(-c2ccc3ncnc(Nc4ccc(OCc5cccc(F)c5)c(Cl)c4)c3c2)o1 [Lapatinib]
- number of regulated phosphopeptides (SK-BR-3 cells): five
- number of regulated phosphopeptides (MDA-MB-175 cells): hundreds
- number of regulated phosphopeptides (BT-474 cells): hundreds

- phosphorylation of the AKT substrates AKT1S1 (T2469) and GSK3B (S9) (A549 lung cancer cells): reduced phosphorylation
Molecule: NC1(c2ccc(-c3nc4ccn5c(=O)[nH]nc5c4cc3-c3ccccc3)cc2)CCC1 [MK-2206]
- ERK1 activity via phosphorylation at Y187 (A549 lung cancer cells): induced ERK1 activity

Molecule: CC1(N)CCN(c2cnc(-c3cccc(Cl)c3Cl)c(N)n2)CC1 [SHP099]
- phosphorylation of the EGFR substrate GAB1 [4]: diminished in a dose-dependent fashion
- phosphorylation sites indicating EGFR activity [4]: does not inhibit

- EC50 ([5]; Homo sapiens, K562, 0.5 h, read-out: EC50 of potently regulated phosphopeptides): < 100 nM
Molecule: Nc1ccn([C@@H]2O[C@H](CO)[C@@H](O)[C@@H]2O)c(=O)n1 [cytarabine]
- number of regulated phosphopeptides [5]: 23

Molecule: COc1cc(Nc2ncc(F)c(Nc3ccc4c(n3)N(COP(=O)(O)O)C(=O)C(C)(C)O4)n2)cc(OC)c1OC [fostamatinib]
- effect of inhibitor pre-treatment on RTX-mediated cytotoxicity (SU-DHL-4 cells [6]): clear reduction of RTX-mediated cytotoxicity
- effect of combination on cytotoxic effect of RTX (SU-DHL-4 cells [3]): diminished the cytotoxic effect of RTX

Molecule: CC(=O)O[C@H]1C(=O)[C@@]2(C)[C@H]([C@H](OC(=O)c3ccccc3)[C@]3(O)C[C@H](OC(=O)[C@H](O)[C@@H](NC(=O)c4ccccc4)c4ccccc4)C(C)=C1C3(C)C)[C@]1(OC(C)=O)CO[C@@H]1C[C@@H]2O [paclitaxel]
- number of regulated phosphopeptides [5]: 7

Molecule: C/C=C1\NC(=O)[C@H]2CSSCC/C=C/[C@H](CC(=O)N[C@H](C(C)C)C(=O)N2)OC(=O)[C@H](C(C)C)NC1=O [romidepsin]
- effect on CTTN acetylation (cortactin (CTTN)): no effect
- response of the phosphoproteome (HeLa cells [1]; after 16 hours): broad and potent response

Molecule: Cn1cnc2c(F)c(Nc3ccc(Br)cc3Cl)c(C(=O)NOCCO)cc21 [selumetinib]
- ERK phosphorylation (A549 lung cancer cells): abrogated ERK phosphorylation
- phosphorylation of the AKT substrate BAD at S99 (A549 lung cancer cells): induced phosphorylation

Molecule: CN[C@@H]1C[C@H]2O[C@@](C)([C@@H]1OC)n1c3ccccc3c3c4c(c5c6ccccc6n2c5c31)C(=O)NC4 [staurosporine]
- number of regulated phosphopeptides (A549 lung cancer cells): ~2500

Molecule: CC(=O)Nc1cccc(-n2c(=O)n(C3CC3)c(=O)c3c(Nc4ccc(I)cc4F)n(C)c(=O)c(C)c32)c1 [trametinib]
- effect of inhibitor pre-treatment on RTX-mediated cytotoxicity (SU-DHL-4 cells [6]): clear reduction of RTX-mediated cytotoxicity

Molecule: O=C(CCCCCCC(=O)Nc1ccccc1)NO [vorinostat]
- effect on protein phosphorylation (HeLa cells [1]; within 4 hours): no noticeable effect

Molecule: RTX: antibody for treatment of B-cell malignancies targeting MS4A1 (CD20)
- downregulation of phosphorylation on the proliferation marker MKI67 (MKI67): > 10 x
- increase of RFTN1 phosphorylation at S467 (RFTN1; SU-DHL-4, within 2 min): 10 fold
- increase of RFTN1 phosphorylation at S467 (RFTN1; SU-DHL-4, within 5 min): 30 fold
- phosphoproteome response (ARH-77 cells): silent
- upregulation of phosphorylation of SYK (SYK): > 10 fold
- sensitivity in viability assay [7]: insensitive
- sensitivity in viability assay [8]: sensitive
- phosphoproteome response (Ramos cells): massive responses
- sensitivity in viability assay [9]: sensitive
- phosphoproteome response (SU-DHL-4 cells [10]): massive responses

Molecule: pertuzumab: breast cancer therapeutic antibody blocking signaling by preventing HER2-HER3 dimerization
- number of regulated phosphopeptides (SK-BR-3 cells): ~ 30
- number of regulated phosphopeptides (MDA-MB-175 cells): ~ 150
- number of regulated phosphopeptides (BT-474 cells): ~ 150

Reference: PMC7615311 (Science (New York, N.Y.), 2023)
